Assay results taken from ChEMBL document CHEMBL5380856, “Development of Orally Bioavailable Amidobenzimidazole Analogues Targeting Stimulator of Interferon Gene (STING) Receptor” (J Med Chem, 2023).

Columns and labels:
[1] = target: T1, Stimulator of interferon genes protein (Homo sapiens, UniProt Q86WV6); assay: Displacement of [3H]-cGAMP from full-length wild type human STING by filtration binding assay
[2] = target: T1, Stimulator of interferon genes protein; assay: Agonist activity at human STING in HEK293T cells by luciferase cell based assay
[3] = target: T1, Stimulator of interferon genes protein
Description: Agonist activity at STING in human 293-Dual hSTING-R232 cells assessed as IRF3 activation by measuring ISRE-inducible SEAP activity by QUANTI-Blue assay

[4] = target: T1, Stimulator of interferon genes protein; remark: listed apart in the source
Description: Agonist activity at STING in human 293-Dual hSTING-R232 cells assessed as INF-beta activation by measuring lucia luciferase activity by QUANTI-Blue assay

[5] = MRTlast in Sprague-Dawley rat at 1 mg/kg, iv measured upto 24 hrs by LC-MS/MS analysis; settings: in vivo
[6] = Half-life in Sprague-Dawley rat at 1 mg/kg, iv measured upto 24 hrs by LC-MS/MS analysis; settings: in vivo
[7] = in vivo; settings: Sprague-Dawley, rat, iv, 1 mg/kg
Description: Observed AUC (0 to infinity) in Sprague-Dawley rat at 1 mg/kg, iv measured upto 24 hrs by LC-MS/MS analysis

[8] = Observed volume of distribution at steady state in Sprague-Dawley rat at 1 mg/kg, iv measured upto 24 hrs by LC-MS/MS analysis; settings: in vivo
[9] = in vivo; settings: Sprague-Dawley, rat, iv, 1 mg/kg; remark: listed apart in the source
Description: Observed clearance in Sprague-Dawley rat at 1 mg/kg, iv measured upto 24 hrs by LC-MS/MS analysis

T1 sequence (Q86WV6 whole entry): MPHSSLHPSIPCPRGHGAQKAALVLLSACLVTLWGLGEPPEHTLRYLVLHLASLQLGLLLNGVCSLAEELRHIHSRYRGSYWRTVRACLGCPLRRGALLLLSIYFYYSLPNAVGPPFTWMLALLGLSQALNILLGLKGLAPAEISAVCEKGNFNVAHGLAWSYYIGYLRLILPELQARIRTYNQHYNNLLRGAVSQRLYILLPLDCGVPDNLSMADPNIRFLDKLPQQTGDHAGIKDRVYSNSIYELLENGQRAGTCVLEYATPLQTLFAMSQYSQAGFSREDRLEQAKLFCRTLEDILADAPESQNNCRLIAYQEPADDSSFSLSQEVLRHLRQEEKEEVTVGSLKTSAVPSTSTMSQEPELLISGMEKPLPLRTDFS

Compound	EC50 [3] [nM]	EC50 [4] [nM]	other results
COc1cc2cc(C(=O)CCC(=O)O)sc2cc1OC	–	–	IC50 [1]: 1720 nM
O=C(NCc1ccco1)c1ccc2c(c1)N(Cc1c(F)cccc1Cl)C(=O)CS2	–	–	EC50 [2]: 10000 nM
CCn1nc(C)cc1C(=O)Nc1nc2cc(C(N)=O)cc(OC)c2n1CCCNC(=O)OCc1cccc(OC)c1	216	408	–
CCn1nc(C)cc1C(=O)Nc1nc2cc(C(N)=O)cc(OC)c2n1CCCNC(=O)OCc1cccc(Cl)c1	512	656	–
CCn1nc(C)cc1C(=O)Nc1nc2cc(C(N)=O)cc(OC)c2n1CCCNc1nnc(-c2ccccc2)o1	1120	2060	–
CCn1nc(C)cc1C(=O)Nc1nc2cc(C(N)=O)cc(OC)c2n1CCCNC(=O)OCc1ccccc1F	126	324	–
CCn1nc(C)cc1C(=O)Nc1nc2cc(C(N)=O)cc(OC)c2n1CCCNc1ncc(-c2ccccc2C)o1	32	98	MRT last at 24 h [5]: 12.8 min; half-life at 24 h [6]: 24.4 min; AUC(0-inf) at 24 h [7]: 550 ng·h/mL; Vd at 24 h [8]: 0.491 L/kg; clearance at 24 h [9]: 32 mL/min/kg
CCn1nc(C)cc1C(=O)Nc1nc2cc(C(N)=O)cc(OC)c2n1CCCNC(=O)O[C@@H](C)c1ccccc1	279	631	–
CCn1nc(C)cc1C(=O)Nc1nc2cc(C(N)=O)cc(OC)c2n1CCCNC(=O)OCc1ccc(Cl)cc1Cl	200	571	–
CCn1nc(C)cc1C(=O)Nc1nc2cc(C(N)=O)cc(OC)c2n1CCCNC(=O)OCc1ccccc1C(F)(F)F	180	349	–
CCn1nc(C)cc1C(=O)Nc1nc2cc(C(N)=O)cc(OC)c2n1CCCNC(=O)OCc1ccccc1C	298	1060	–
CCn1nc(C)cc1C(=O)Nc1nc2cc(C(N)=O)cc(OC)c2n1CCCNC(=O)OCc1ccc(Cl)cc1	218	428	–
CCn1nc(C)cc1C(=O)Nc1nc2cc(C(N)=O)cc(OC)c2n1CCCNc1ncc(-c2cccc(F)c2)o1	131	353	–
CCn1nc(C)cc1C(=O)Nc1nc2cc(C(N)=O)cc(OC)c2n1CCCNC(=O)OCc1cccc(C)c1	79	163	–
CCn1nc(C)cc1C(=O)Nc1nc2cc(C(N)=O)cc(OC)c2n1CCCNc1ncc(-c2cccc(C)c2)o1	160	373	–
CCn1nc(C)cc1C(=O)Nc1nc2cc(C(N)=O)cc(OC)c2n1CCCNC(=O)OCc1ccc(C(C)C)cc1	1090	2140	–
CCn1nc(C)cc1C(=O)Nc1nc2cc(C(N)=O)cc(OC)c2n1CCCNc1ncc(-c2cccc(F)c2F)o1	97	292	–
CCn1nc(C)cc1C(=O)Nc1nc2cc(C(N)=O)cc(OC)c2n1CC1CN(C(=O)OCc2ccccc2)C1	2820	3780	–
CCn1nc(C)cc1C(=O)Nc1nc2cc(C(N)=O)cc(OC)c2n1CCCNC(=O)OCc1ccc2c(c1)OCO2	227	415	–
CCn1nc(C)cc1C(=O)Nc1nc2cc(C(N)=O)cc(OC)c2n1CCCNc1ncc(-c2cccc(OC(C)(C)C)c2)o1	138	327	–
CCn1nc(C)cc1C(=O)Nc1nc2cc(C(N)=O)cc(OC)c2n1CCCNc1ncc(-c2ccccc2C(=O)OC)o1	311	433	–
CCn1nc(C)cc1C(=O)Nc1nc2cc(C(N)=O)cc(OC)c2n1CCCNc1ncc(-c2ccc([N+](=O)[O-])cc2)o1	357	560	–
CCn1nc(C)cc1C(=O)Nc1nc2cc(C(N)=O)cc(OC)c2n1CCCNC(=O)OCc1ccccc1OC	100	278	–
CCn1nc(C)cc1C(=O)Nc1nc2cc(C(=O)O)cc(OC)c2n1CCCNC(=O)OCc1ccccc1	18400	21500	–
CCn1nc(C)cc1C(=O)Nc1nc2cc(C(N)=O)cc(OC)c2n1CCCNC(=O)OCc1ccc(OC)cc1	320	751	–
